Drawing on BindingDB's records for doi:10.1021/ml400370w (The Scripps Research Institute, 2014), this text covers IC50 for six compounds.

Some results are limits rather than exact numbers.

This assay can be described thus: Antagonist activity against CCR5 receptor in human TZM-bl cells assessed as inhibition of HIV-1 JR-FL-induced cell-cell fusion between viral envelope protein expressing human HEK293 cells to TZM-bl cells after 48 hrs by luciferase reporter gene assay. (A reporter such as luciferase makes a cellular process visible.)
On to `Cc1nnc(CCCCCCCCCCN=[N+]=[N-])n1C1CC2CCC(C1)N2CC[C@H](NC(=O)C1CCC(F)(F)CC1)c1ccccc1` (stereo partly specified), for which the 50% inhibitory concentration (IC50) – broadly, the concentration at which inhibition is half-maximal – stood at 0.96 nM.
As to `Cc1nnc(CCCCCCCCCCn2cc(COCCOCCOCCOCCOCc3ccc(C(=O)NCCCNC(=O)OC(C)(C)C)cc3)nn2)n1C1CC2CCC(C1)N2CC[C@H](NC(=O)C1CCC(F)(F)CC1)c1ccccc1` (stereo partly specified), the IC50 is 3 nM.
For `Cc1nnc(C(C)C)n1C1CC2CCC(C1)N2CC[C@H](NC(=O)CCCCCCCCCCn1cc(COCCOCCOCCOCCOCc2ccc(C(=O)N3CCC3=O)cc2)nn1)c1ccccc1` (stereo partly specified) the value was 27 nM.
Consider `Cc1nnc(C(C)C)n1C1CC2CCC(C1)N2CC[C@H](NC(=O)COCCOCCOCCN=[N+]=[N-])c1ccccc1` (stereo partly specified), for which the IC50 was greater than 1000 nM.
As to `Cc1nnc(C(C)C)n1C1CC2CCC(C1)N2CC[C@H](NC(=O)CCCCCCCCCCN=[N+]=[N-])c1ccccc1` (stereo partly specified), the IC50 came to 360 nM.
Then `Cc1nnc(CCCCCCCCCCn2cc(COCCOCCOCCOCCOCc3ccc(C(=O)N4CCC4=O)cc3)nn2)n1C1CC2CCC(C1)N2CC[C@H](NC(=O)C1CCC(F)(F)CC1)c1ccccc1` (stereo partly specified), with 2.6 nM.
